We go through 24 molecules from ChEMBL document CHEMBL5316306 (J Med Chem, 2023).

Each structure is given as a SMILES string.

Test [1] has as its target T1, Proteasome Macropain subunit MB1 (Homo sapiens, UniProt P28074).
T1 sequence (P28074 whole entry): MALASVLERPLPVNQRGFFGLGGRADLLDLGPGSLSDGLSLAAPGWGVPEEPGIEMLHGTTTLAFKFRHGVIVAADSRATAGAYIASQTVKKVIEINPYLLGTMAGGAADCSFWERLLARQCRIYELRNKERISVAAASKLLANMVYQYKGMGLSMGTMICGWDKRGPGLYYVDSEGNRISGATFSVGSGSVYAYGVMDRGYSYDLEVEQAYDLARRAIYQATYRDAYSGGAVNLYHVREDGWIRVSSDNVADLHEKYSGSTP
Nature of the test: Inhibition of human 20s constitutive proteasome beta-5c.

The target of test [2] is T2, Proteasome subunit beta type-8 (Homo sapiens, UniProt P28062).
T2 sequence (P28062 whole entry): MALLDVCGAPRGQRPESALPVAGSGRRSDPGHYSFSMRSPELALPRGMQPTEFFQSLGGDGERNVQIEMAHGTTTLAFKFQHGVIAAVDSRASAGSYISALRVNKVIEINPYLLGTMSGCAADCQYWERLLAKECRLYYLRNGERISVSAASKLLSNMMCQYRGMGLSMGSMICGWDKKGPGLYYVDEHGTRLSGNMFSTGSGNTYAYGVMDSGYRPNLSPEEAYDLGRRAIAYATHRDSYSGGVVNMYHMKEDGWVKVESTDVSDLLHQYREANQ
Description: Inhibition of human 20s immunoproteasome beta-5i subunit.

Regarding `Cc1ccc(S(=O)(=O)N[C@@H](CC(=O)NC(C)(C)C)C(=O)Nc2ccc(B(O)O)cc2)cc1`, the 50% inhibitory concentration (IC50) in test [1] and in test [2] was more than 100 µM in each case.

Consider `Cc1ncc(C(=O)N[C@@H](CC(=O)NC(C)(C)C)C(=O)NCc2cccc(B(O)O)c2)s1`, for which the IC50 in test [1] and in test [2] was more than 100 µM throughout.

For the molecule `Cc1ccc(S(=O)(=O)N[C@@H](CC(=O)NC(C)(C)C)C(=O)NCc2cccc(C(F)(F)F)c2)cc1`, the concentration for half-maximal inhibition (IC50) in test [1] and in test [2] was more than 100 µM in each case.

As to `Cc1ccc(S(=O)(=O)N[C@@H](CC(=O)NC(C)(C)C)C(=O)NCc2cccc(C(=O)O)c2)cc1`, the concentration for half-maximal inhibition (IC50) in test [1] and in test [2] was more than 100 µM in each case.

For `Cc1ccc(S(=O)(=O)N[C@@H](CC(=O)NC(C)(C)C)C(=O)NCc2ccccc2)cc1`, the IC50 in test [1] and in test [2] was more than 100 µM each time.

`CC(C)(C)NC(=O)C[C@H](NC(=O)Cc1c[nH]c2ccccc12)C(=O)NCc1cccc(B(O)O)c1`: the half-inhibitory concentration (IC50) (as a rule, the concentration that inhibits the measured activity by half) worked out at 0.7 µM in test [1] and 69.2 µM in test [2].

As to `CC(C)(C)NC(=O)C[C@H](NC(=O)c1cnccn1)C(=O)NCc1cccc(B(O)O)c1`, the IC50 in test [1] and in test [2] was more than 100 µM each time.

In the case of `COC[C@H](NC(=O)C(=O)c1c[nH]c2ccccc12)C(=O)NCc1cccc(B(O)O)c1`, the figures for the IC50 in test [1] and in test [2] were 3 µM and 45.2 µM, respectively.

With `CC(C)(C)NC(=O)C[C@H](NC(=O)CCc1ccc(F)cc1)C(=O)NCc1cccc(B(O)O)c1`, the IC50 in test [1] was 0.75 µM; in test [2], 47.9 µM.

For the molecule `CC(C)(C)NC(=O)C[C@H](NC(=O)c1cc(Cl)ccc1Cl)C(=O)NCc1cccc(B(O)O)c1`, the half-inhibitory concentration (IC50) in test [1] amounted to 1.4 µM; in test [2], 57.7 µM.

As to `CC(C)(C)NC(=O)C[C@H](NC(=O)C(=O)C1CC1)C(=O)NCc1cccc(B(O)O)c1`, the figures for the IC50 in test [1] and in test [2] were 24.1 µM and more than 100 µM, respectively.

As for `Cc1ccc(S(=O)(=O)N[C@@H](CC(=O)NC(C)(C)C)C(=O)NCc2ccc(B(O)O)cc2)cc1`, the IC50 in test [1] and in test [2] was more than 100 µM each time.

As to `Cc1ccc(S(=O)(=O)N[C@@H](CC(=O)NC(C)(C)C)C(=O)NCc2cccc(B(O)O)c2)cc1`, the IC50 in test [1] was 0.21 µM; in test [2] it was more than 100 µM.

With `Cc1ccc(S(=O)(=O)N[C@@H](CC(=O)NC(C)(C)C)C(=O)Nc2cccc(B(O)O)c2)cc1`, the IC50 in test [1] and in test [2] was more than 100 µM throughout.

As to `Cc1cc(C(=O)N[C@@H](CC(=O)NC(C)(C)C)C(=O)NCc2cccc(B(O)O)c2)no1`, the IC50 in test [1] was 5.9 µM; in test [2] it was more than 100 µM.

As for `CC(C)(C)NC(=O)C[C@H](NC(=O)C(=O)c1ccccc1)C(=O)NCc1cccc(B(O)O)c1`, the IC50 was 0.24 µM in test [1] and more than 100 µM in test [2].

For `Cc1ccc(S(=O)(=O)N[C@@H](CC(=O)NC(C)(C)C)C(=O)NCc2cccc(F)c2)cc1`, the concentration for half-maximal inhibition (IC50) in test [1] and in test [2] was more than 100 µM throughout.

Regarding `CC(C)(C)NC(=O)C[C@H](NC(=O)CN1CCOCC1)C(=O)NCc1cccc(B(O)O)c1`, the IC50 in test [1] and in test [2] was more than 100 µM throughout.

Consider `Cc1ccc(S(=O)(=O)N[C@@H](CC(=O)NC(C)(C)C)C(=O)NCc2cccs2)cc1`, for which the IC50 in test [1] and in test [2] was more than 100 µM each time.

For the molecule `Cc1ccc(S(=O)(=O)N[C@@H](CC(=O)NC(C)(C)C)C(=O)NCc2ccc(B(O)O)o2)cc1`, the IC50 in test [1] was determined as 2.6 µM; in test [2] it was 57.2 µM.

In the case of `Cc1ccc(S(=O)(=O)N[C@@H](CC(=O)NC(C)(C)C)C(=O)NCc2ccc(B(O)O)s2)cc1`, the concentration for half-maximal inhibition (IC50) in test [1] and in test [2] was more than 100 µM each time.

As for `CC(C)(C)NC(=O)C[C@H](NC(=O)c1cc(-c2ccccc2)ccn1)C(=O)NCc1cccc(B(O)O)c1`, the IC50 in test [1] was determined as 3.8 µM; in test [2] it was 22.8 µM.

In the case of `Cc1ccc(S(=O)(=O)N[C@@H](CC(=O)NC(C)(C)C)C(=O)NCc2cccc(O)c2)cc1`, the half-maximal inhibitory concentration (IC50) in test [1] and in test [2] was more than 100 µM in each case.

`CC(C)(C)NC(=O)C[C@H](NC(=O)c1ccccc1)C(=O)NCc1cccc(B(O)O)c1`: the 50% inhibitory concentration (IC50) is 3.8 µM in test [1] and more than 100 µM in test [2].
